The values below come from patent US20060264408A1, “Sod minic multifunctional compounds for treating inflammatory bowel disease” (priority 2003, published 2006).

The test system of this experiment is acetic acid-induced colitis. The experiment can be described thus: acetic acid-induced colitis in rats: oxidative stress markers (PCC, TBARS) in colonic tissue. Conditions: for activity compared with 5-ASA and lipoic acid: acetic acid-induced rat colitis; for TBARS (thiobarbituric acid reactive substrates), Pre-treatment / PCC (tissue protein carbonyl content), Pre-treatment: administered 10 minutes before induction of colitis; for TBARS (thiobarbituric acid reactive substrates), Pre-treatment / PCC (tissue protein carbonyl content), Pre-treatment / TBARS (thiobarbituric acid reactive substrates), Post-treatment / PCC (tissue protein carbonyl content), Post-treatment: 5-ASA 100 mg/kg, LA 50 mg/kg, compounds 1 and 7 50 mg/kg, sacrificed 24 hr post induction; for TBARS (thiobarbituric acid reactive substrates), Pre-treatment: control 18 ± 4, AA alone 187 ± 14; for PCC (tissue protein carbonyl content), Pre-treatment: control 261 ± 27, AA alone 1687 ± 98; for TBARS (thiobarbituric acid reactive substrates), Post-treatment / PCC (tissue protein carbonyl content), Post-treatment: administered 30 minutes after induction of colitis; for TBARS (thiobarbituric acid reactive substrates), Post-treatment: control 15 ± 3, AA alone 163 ± 14; for PCC (tissue protein carbonyl content), Post-treatment: control 273 ± 21, AA alone 1587 ± 95; for treated rats compared with control healthy rats (PCC, TBARS): results of the table, P<0.05.

Structures are written as SMILES.

As for `O=C(O)CCCC[C@@H]1CCSS1` (racemic) [lipoic acid, reference compound], the “activity compared with 5-ASA and lipoic acid” value is recorded as “as effective as 5-ASA”; the “TBARS (thiobarbituric acid reactive substrates), Pre-treatment” value (“TBARS … Pre-treatment” below) is 73 ± 8; the “PCC (tissue protein carbonyl content), Pre-treatment” value (“PCC … Pre-treatment” for short) is 867 ± 73; the “TBARS (thiobarbituric acid reactive substrates), Post-treatment” value (“TBARS … Post-treatment” below) is 64 ± 8. The “PCC (tissue protein carbonyl content), Post-treatment” value (from here on “PCC … Post-treatment”) is 713 ± 31.

For `Cc1cc(O)c(C(=O)O)cc1/N=N\c1ccc2c(c1)C(C)(C)N([O])C2(C)C` [Compound 1], the “activity compared with 5-ASA and lipoic acid” value is recorded as “more active than either of LA or ASA used separately or even simultaneously”; the “TBARS … Pre-treatment” value amounted to 27 ± 4; the “PCC … Pre-treatment” value amounted to 293 ± 33; the “TBARS … Post-treatment” value turned out to be 18 ± 3. The “PCC … Post-treatment” value was 278 ± 32 and the “treated rats compared with control healthy rats (PCC, TBARS)” value is “statistically indifferent from control healthy rats”.

`Nc1ccc(O)c(C(=O)O)c1` [Compound 5-ASA, 5-aminosalicylic acid, reference compound]: the “TBARS … Pre-treatment” value is recorded as 89 ± 9; the “PCC … Pre-treatment” value was found to be 959 ± 48; the “TBARS … Post-treatment” value was 74 ± 9; the “PCC … Post-treatment” value is recorded as 873 ± 79.

As to `O=C(O)c1cc2[nH]c(CCCCC3CCSS3)nc2cc1O` (stereo not drawn) [Compound 7], the “activity compared with 5-ASA and lipoic acid” value is listed as “more active than either of LA or ASA used separately or even simultaneously”; the “TBARS … Pre-treatment” value came to 21 ± 3; the “PCC … Pre-treatment” value is listed as 284 ± 26; the “TBARS … Post-treatment” value was determined as 19 ± 2. Further, the “PCC … Post-treatment” value turned out to be 269 ± 28 and the “treated rats compared with control healthy rats (PCC, TBARS)” value is “statistically indifferent from control healthy rats”.
